Measured values reported in ChEMBL document CHEMBL1201862, “PubChem BioAssay data set” (2004).
Calls of active or inactive are those of the source.

Assays:
[1] = target: T1, Mannose-6-phosphate isomerase (Homo sapiens, UniProt P34949); experiment: MPI inhibition at elevated mannose 6-phosphate – biochemical, fluorescence intensity, high mannose 6-phosphate, primary screen (AID 1220)
T1 sequence (P34949 whole entry): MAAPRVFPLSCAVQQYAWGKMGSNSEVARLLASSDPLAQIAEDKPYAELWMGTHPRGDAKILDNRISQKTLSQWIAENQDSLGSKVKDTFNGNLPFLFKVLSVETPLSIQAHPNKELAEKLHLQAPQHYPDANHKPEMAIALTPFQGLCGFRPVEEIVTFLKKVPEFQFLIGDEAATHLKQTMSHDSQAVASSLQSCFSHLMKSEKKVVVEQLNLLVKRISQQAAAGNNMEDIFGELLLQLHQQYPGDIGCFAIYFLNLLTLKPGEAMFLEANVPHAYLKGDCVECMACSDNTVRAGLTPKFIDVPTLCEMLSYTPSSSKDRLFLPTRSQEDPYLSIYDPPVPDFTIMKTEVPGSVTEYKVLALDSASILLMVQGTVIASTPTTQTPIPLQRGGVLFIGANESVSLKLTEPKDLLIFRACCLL

H9c2 = experiment: cells; type: functional, cell-based; conditions: Rattus norvegicus, H9c2, Myocardium;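 further: confirmatory concentration-response retest of ultra-high-throughput screening hits for modulation of myocardial damage; cell death induced by hydrogen peroxide oxidative stress; compound pretreatment for 60 min then peroxide exposure for 2 h; potency is for protecting the cells against peroxide damage rather than for killing them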
fMet-Leu-Phe receptor = fMet-Leu-Phe receptor (Homo sapiens, UniProt P21462); experiment: formyl peptide receptor binders – dose response (AID 519); type: functional
[2] = target: T2, RNA-binding protein pos-1 (Caenorhabditis elegans, UniProt G5EF15); experiment: disruptors of C. elegans POS-1 RNA interaction – biochemical, fluorescence polarization, dose response (AID 1964);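 further: purified POS-1 fused to maltose binding protein made in E. coli; potency of compounds blocking POS-1 binding to fluorescent RNA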
T2 sequence (G5EF15 whole entry): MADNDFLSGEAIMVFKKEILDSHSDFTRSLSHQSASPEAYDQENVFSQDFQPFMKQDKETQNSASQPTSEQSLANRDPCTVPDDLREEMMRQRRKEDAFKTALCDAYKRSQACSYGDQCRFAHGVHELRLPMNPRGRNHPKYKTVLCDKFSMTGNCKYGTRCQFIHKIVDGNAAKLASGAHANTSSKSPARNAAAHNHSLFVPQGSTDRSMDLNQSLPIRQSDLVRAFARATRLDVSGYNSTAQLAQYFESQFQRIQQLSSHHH

[3] = target: T3, Zinc finger protein mex-5 (Caenorhabditis elegans, UniProt Q9XUB2); experiment: potency of MEX-5 RNA-binding blockers – biochemical, C. elegans, fluorescence polarization, dose response (AID 1960)
T3 sequence (Q9XUB2 whole entry): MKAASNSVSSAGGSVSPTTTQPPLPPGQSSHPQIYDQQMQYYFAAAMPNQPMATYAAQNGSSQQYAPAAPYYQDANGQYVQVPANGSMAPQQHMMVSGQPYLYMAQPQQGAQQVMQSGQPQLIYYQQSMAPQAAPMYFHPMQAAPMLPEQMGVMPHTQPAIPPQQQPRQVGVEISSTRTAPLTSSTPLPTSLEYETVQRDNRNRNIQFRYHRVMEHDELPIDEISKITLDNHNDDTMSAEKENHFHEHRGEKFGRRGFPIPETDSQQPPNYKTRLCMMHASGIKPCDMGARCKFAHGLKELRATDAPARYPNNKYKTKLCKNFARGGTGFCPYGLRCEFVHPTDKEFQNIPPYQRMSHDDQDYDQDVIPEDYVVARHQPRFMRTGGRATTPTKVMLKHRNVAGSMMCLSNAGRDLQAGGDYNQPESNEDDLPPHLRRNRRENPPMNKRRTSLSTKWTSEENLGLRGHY

[4] = target: Glucose-6-phosphate 1-dehydrogenase (Homo sapiens, UniProt P11413); experiment: inhibition of Homo sapiens G6PD, dose series – biochemical, fluorescence, selectivity assay for P. falciparum G6PD inhibitor project, dose response (AID 504792); type: functional
[5] = target: T4, Carboxy-terminal domain RNA polymerase II polypeptide A small phosphatase 1 (Homo sapiens, UniProt Q9GZU7); experiment: CTDSP1 inhibitors, concentration-response, biochemical, absorbance readout, ultra-high-throughput screen actives (AID 540297); type: functional
T4 sequence (Q9GZU7 whole entry): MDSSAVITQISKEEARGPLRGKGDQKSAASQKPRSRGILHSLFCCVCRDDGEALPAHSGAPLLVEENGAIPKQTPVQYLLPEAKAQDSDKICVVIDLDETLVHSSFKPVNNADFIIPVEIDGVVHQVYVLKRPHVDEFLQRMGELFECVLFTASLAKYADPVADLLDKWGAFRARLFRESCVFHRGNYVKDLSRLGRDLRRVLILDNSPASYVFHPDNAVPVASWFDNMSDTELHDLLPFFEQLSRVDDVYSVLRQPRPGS

[6] = target: 1-phosphatidylinositol 4,5-bisphosphate phosphodiesterase gamma-1 (Homo sapiens, UniProt P19174); experiment: Counterscreen for inhibitors of phospholipase C isozymes (PLC-B3): Fluorescence-based biochemical high throughput dose response assay to identify inhibitors of phospholipase C isozymes (PLC-gamma1).
[7] = target: 1-phosphatidylinositol 4,5-bisphosphate phosphodiesterase beta-3 (Homo sapiens, UniProt Q01970); experiment: Fluorescence-based biochemical high throughput dose response assay to identify inhibitors of phospholipase C isozymes (PLC-B3).
[8] = Late stage assay provider results from the probe development effort to identify selective inhibitors of heat shock protein 90 (HSP90): Absorbance-based cell proliferation assay in SKBR3 cells.; type: functional; conditions: SK-BR-3
[9] = Late stage assay provider results from the probe development effort to identify selective inhibitors of heat shock protein 90 (HSP90): Absorbance-based cell proliferation assay in MCF7 cells.; type: functional
[10] = target: T5, Microphthalmia-associated transcription factor (Homo sapiens, UniProt O75030); experiment: reducers of TRPM1 reporter luminescence, concentration series – cell-based, SK-MEL-5, cherry-picked, set 3, MITF inhibitor project, dose response (AID 493073); type: functional;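 further: SK-MEL-5 melanoma cells with luciferase driven by the MITF target TRPM1 promoter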
T5 sequence (O75030 whole entry): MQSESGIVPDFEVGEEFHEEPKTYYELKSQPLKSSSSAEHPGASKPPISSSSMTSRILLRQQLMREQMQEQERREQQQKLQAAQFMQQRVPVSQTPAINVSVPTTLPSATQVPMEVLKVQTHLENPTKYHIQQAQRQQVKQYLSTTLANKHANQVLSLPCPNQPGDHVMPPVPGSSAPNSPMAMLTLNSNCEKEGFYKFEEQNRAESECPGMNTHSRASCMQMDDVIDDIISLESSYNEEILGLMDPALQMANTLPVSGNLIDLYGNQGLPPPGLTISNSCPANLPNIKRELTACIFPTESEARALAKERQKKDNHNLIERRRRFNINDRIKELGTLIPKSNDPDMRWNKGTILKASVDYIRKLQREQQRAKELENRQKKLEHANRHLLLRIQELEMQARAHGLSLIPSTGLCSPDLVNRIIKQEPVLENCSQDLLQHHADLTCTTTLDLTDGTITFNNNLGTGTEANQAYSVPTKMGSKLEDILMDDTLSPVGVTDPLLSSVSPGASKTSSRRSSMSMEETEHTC

[11] = reduction of Shn3 3'UTR-driven luciferase in osteoblasts – cell-based, Clone20 osteoblasts, firefly luciferase, cherry-picked, dose response (AID 624132); type: functional;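 further: firefly luciferase luminescence from reporter carrying the Shn3 3'UTR in osteoblasts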
Paired box protein Pax-8 = Paired box protein Pax-8 (Homo sapiens, UniProt Q06710); experiment: PAX8 transcriptional activity inhibition in RMG-I – RMG-I cells, luciferase, cherry-pick, dose response (AID 687027); type: functional, cell-based;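 further: luciferase reporter driven by Pax8 target thyroperoxidase promoter measured by SteadyGlo luminescence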
[12] = Shn3 3'UTR reporter signal decrease – cell-based, Clone20 osteoblasts, firefly luciferase, cherry-pick, set 2, Schnurri-3 inhibitor project, dose response (AID 720490); type: functional;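 further: actives lower the luminescence signal as inhibitors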
[13] = target: Glutathione-S-transferase (Schistosoma japonicum, UniProt Q26513); experiment: GST-antibody interaction or FRET quenching – biochemical, TR-FRET, artefact control for Vif-APOBEC3G degradation inhibitor project, dose response (AID 1117362); type: functional
[14] = target: Mitogen-activated protein kinase 10 (Homo sapiens, UniProt P53779); experiment: Dose response biochemical screening assay for inhibitors of c-Jun N-Terminal Kinase 3 (JNK3). [Related pubchem assays: 746 ]
Kallikrein-7 = Kallikrein-7 (Homo sapiens, UniProt P49862); experiment: Fluorescence Intensity-based biochemical primary high throughput dose response assay to identify activators of kallikrein-7 (K7) zymogen.
[15] = OVCAR-3 cell viability loss – plate reader, dry powder samples, PAX8 inhibitor project, dose response (AID 743044); type: functional, cell-based
[16] = IGROV1 cell killing – plate reader, dry powder samples, PAX8 inhibitor project, dose response (AID 743043); type: functional, cell-based; conditions: IGROV-1
[17] = OVCAR8 cell viability loss – plate reader, dry powder samples, PAX8 project, dose response (AID 743197); type: functional, cell-based; conditions: OVCAR-8

Chain of Paired box protein Pax-8 (Q06710 whole entry): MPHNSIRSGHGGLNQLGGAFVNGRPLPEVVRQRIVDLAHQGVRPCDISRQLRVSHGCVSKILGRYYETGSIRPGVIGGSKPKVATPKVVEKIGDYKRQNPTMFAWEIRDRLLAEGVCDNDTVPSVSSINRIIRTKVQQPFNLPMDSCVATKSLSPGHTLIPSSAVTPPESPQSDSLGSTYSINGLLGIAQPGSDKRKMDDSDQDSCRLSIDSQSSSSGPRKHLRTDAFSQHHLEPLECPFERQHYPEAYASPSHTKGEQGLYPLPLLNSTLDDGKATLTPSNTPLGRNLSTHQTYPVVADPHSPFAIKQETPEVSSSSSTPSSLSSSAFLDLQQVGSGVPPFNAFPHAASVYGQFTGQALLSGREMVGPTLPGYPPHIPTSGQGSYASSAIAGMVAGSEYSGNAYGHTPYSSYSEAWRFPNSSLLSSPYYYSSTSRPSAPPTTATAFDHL
Chain of 1-phosphatidylinositol 4,5-bisphosphate phosphodiesterase beta-3 (Q01970 whole entry): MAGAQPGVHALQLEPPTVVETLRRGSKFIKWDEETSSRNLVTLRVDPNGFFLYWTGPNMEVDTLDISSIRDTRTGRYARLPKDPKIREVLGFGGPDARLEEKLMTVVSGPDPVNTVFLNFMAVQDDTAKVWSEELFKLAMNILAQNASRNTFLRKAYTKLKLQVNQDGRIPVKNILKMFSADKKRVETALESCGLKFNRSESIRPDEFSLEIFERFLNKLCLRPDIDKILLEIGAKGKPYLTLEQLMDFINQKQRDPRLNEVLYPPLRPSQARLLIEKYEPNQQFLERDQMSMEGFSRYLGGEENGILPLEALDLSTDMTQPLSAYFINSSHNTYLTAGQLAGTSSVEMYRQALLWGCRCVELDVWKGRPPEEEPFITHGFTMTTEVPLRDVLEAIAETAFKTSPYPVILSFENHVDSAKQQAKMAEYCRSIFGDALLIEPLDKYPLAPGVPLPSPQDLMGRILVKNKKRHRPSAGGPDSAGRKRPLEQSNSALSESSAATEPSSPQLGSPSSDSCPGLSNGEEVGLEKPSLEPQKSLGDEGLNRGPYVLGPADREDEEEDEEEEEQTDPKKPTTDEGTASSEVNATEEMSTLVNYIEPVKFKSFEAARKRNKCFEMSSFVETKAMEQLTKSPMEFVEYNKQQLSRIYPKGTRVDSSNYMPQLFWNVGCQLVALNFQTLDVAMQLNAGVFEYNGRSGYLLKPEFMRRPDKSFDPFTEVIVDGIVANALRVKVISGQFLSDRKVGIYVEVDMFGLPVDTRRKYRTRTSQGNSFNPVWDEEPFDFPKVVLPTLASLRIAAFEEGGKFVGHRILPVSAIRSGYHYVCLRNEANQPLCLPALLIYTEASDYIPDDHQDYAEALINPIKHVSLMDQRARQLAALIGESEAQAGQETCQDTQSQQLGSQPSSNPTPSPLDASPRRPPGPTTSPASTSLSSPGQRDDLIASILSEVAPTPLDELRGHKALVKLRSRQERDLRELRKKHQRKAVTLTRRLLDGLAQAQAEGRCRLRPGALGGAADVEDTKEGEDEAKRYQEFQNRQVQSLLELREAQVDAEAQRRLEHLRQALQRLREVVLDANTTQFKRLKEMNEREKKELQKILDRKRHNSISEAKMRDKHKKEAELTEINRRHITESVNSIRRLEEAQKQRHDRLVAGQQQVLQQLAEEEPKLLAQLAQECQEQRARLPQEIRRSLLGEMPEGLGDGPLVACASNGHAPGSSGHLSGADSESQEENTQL
Chain of Glutathione-S-transferase (Q26513 whole entry): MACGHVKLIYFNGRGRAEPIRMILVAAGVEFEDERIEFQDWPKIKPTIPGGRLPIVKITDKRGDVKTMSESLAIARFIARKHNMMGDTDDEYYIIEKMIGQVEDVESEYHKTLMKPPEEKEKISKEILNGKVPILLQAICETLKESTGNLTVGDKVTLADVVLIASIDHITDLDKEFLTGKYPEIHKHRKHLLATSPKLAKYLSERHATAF
Chain of Kallikrein-7 (P49862 whole entry): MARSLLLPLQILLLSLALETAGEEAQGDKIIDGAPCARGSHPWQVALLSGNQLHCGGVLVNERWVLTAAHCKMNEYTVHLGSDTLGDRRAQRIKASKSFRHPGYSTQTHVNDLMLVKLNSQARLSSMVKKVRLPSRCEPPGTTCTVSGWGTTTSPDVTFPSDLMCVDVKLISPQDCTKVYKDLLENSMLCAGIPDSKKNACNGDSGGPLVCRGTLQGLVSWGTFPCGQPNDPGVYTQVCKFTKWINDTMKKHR
Chain of Glucose-6-phosphate 1-dehydrogenase (P11413 whole entry, the tested form may be a part): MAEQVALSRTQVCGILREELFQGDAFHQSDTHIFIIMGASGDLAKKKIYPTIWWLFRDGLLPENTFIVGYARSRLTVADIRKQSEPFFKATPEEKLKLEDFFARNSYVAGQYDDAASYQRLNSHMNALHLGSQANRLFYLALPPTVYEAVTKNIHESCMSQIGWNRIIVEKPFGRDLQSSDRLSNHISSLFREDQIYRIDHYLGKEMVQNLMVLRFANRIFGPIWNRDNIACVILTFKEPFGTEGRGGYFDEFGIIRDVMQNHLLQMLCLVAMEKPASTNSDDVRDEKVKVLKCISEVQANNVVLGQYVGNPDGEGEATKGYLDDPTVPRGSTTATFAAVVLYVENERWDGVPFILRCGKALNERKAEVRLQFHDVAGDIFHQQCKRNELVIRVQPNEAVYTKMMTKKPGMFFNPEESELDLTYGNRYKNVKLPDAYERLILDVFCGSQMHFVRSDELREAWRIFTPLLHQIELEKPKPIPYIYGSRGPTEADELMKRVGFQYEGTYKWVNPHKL
Chain of 1-phosphatidylinositol 4,5-bisphosphate phosphodiesterase gamma-1 (P19174 whole entry): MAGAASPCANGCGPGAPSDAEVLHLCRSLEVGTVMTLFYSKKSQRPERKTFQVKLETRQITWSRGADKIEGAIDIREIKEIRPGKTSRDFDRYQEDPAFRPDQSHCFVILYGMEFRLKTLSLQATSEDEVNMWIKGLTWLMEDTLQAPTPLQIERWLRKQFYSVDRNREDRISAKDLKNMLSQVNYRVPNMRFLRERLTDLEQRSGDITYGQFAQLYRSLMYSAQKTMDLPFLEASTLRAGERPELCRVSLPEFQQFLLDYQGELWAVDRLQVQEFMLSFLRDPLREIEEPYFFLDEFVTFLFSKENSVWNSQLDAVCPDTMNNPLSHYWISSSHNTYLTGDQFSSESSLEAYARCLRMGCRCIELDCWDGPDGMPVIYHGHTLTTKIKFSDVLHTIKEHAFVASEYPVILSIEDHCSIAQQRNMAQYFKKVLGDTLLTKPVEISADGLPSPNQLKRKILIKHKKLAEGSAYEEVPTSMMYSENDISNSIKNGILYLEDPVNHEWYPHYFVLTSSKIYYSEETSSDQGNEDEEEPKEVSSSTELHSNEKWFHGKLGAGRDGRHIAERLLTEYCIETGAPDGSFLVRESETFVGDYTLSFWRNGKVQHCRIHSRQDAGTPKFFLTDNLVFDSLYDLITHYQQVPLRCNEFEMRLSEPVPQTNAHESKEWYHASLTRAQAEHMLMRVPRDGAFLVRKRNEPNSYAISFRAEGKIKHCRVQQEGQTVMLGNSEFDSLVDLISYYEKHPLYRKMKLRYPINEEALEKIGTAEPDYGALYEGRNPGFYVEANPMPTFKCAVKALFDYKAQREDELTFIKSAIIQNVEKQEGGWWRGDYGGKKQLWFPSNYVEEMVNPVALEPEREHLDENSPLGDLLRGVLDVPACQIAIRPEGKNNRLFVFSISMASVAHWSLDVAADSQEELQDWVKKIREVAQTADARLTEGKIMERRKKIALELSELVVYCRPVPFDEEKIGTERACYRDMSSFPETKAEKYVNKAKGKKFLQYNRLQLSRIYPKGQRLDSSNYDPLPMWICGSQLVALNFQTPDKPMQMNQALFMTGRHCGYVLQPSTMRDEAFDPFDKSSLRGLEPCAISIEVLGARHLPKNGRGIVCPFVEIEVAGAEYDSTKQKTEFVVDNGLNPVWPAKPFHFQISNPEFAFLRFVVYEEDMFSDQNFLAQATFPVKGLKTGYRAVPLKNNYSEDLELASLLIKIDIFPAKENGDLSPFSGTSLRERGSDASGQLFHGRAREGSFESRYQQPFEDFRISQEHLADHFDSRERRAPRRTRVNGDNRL
Chain of fMet-Leu-Phe receptor (P21462 whole entry, the tested form may be a part): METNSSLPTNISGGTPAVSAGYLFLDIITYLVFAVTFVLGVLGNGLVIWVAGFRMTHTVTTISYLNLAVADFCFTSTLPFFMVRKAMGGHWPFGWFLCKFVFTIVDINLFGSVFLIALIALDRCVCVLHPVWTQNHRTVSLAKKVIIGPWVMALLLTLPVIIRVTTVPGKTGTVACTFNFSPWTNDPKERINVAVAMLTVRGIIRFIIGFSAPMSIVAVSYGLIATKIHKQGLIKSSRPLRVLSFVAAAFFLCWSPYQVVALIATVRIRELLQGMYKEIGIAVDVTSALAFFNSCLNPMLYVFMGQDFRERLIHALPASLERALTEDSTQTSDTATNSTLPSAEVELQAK
Chain of Mitogen-activated protein kinase 10 (P53779 whole entry): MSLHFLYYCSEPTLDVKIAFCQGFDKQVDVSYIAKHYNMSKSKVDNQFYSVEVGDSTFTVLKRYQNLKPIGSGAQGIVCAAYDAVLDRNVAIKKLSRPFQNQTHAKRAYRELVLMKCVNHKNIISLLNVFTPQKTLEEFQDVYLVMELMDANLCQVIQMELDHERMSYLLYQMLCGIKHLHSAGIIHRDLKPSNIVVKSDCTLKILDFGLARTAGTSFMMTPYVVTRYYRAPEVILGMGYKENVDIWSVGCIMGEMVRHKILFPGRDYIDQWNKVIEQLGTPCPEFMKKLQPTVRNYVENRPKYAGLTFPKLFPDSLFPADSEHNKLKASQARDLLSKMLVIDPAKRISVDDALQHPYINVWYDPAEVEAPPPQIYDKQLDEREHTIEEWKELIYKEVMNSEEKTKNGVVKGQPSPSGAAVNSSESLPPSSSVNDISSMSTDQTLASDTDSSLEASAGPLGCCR

Compound: Fc1ccc(NC(S)=Nc2ccc3nccnc3c2)cc1
- IC50 [1]: > 50 µM (not active)
- IC50 (H9c2): 22.5 µM (active)

Compound: CCc1cc2c(=O)c(-c3nc4ccccc4n3C)c(COCC(=O)O)oc2cc1OC(=O)C(C)(C)C
- Ki (fMet-Leu-Phe receptor): > 66.7 µM (inactive)

Compound: O=C(O)c1ccc(-n2c(-c3cc(-c4ccco4)[nH]n3)n[nH]c2=S)cc1
- EC50 [2]: 4.19 µM (inconclusive)
- EC50 [3]: 4.74 µM (inconclusive)
- IC50 [4]: > 80 µM (inactive)
- IC50 [5]: 1.59 µM (active)
- IC50 [6]: 102 µM (inactive)
- IC50 [7]: > 122 µM (inactive)

Compound: COC(=O)c1cccc(COc2ccc3cc(C#N)c(=O)oc3c2)c1
- IC50 [8]: > 100 µM (inactive)
- IC50 [9]: > 100 µM (inactive)

Compound: Cc1ccc(-c2cn3cc(C)ccc3n2)cc1
- AC50 [10]: 2.03 µM (active)
- AC50 [11]: 1.32 µM (active)
- AC50 (Paired box protein Pax-8): 3.46 µM (active)
- AC50 [12]: 7.73 µM (active)

Compound: CC[n+]1ccc(C)c2cc([S+]([O-])C(F)(F)F)ccc21 (configuration not stated)
- IC50 [13]: 55.4 µM (active)

Compound: COC(=O)c1cccc(NC(=O)CN2CCC(NC(=O)c3cc(OC)c(OC)c(OC)c3)CC2)c1
- IC50 [14]: 1.7 µM (active)

Compound: CCN1CCN(c2cc(C)c3cc(NC(=O)c4ccc(C)c(C)c4)ccc3n2)CC1
- EC50 (Kallikrein-7): 17.2 µM (inactive)

Compound: COc1ccccc1S(=O)(=O)N(C)C[C@H]1Oc2cc(C#CCC3CCCC3)ccc2S(=O)(=O)N([C@H](C)CO)C[C@H]1C
- AC50 (Paired box protein Pax-8): 4.83 µM (active)
- AC50 [15]: 35.5 µM (active)
- AC50 [16]: 55.4 µM (active)
- AC50 [17]: 64 µM (active)
